Each structure is given as a SMILES string.

The subject of assay [1] is mice subjected to fetal reprogramming. Kind of assay: Treadmill endurance test of mice subjected to fetal reprogramming. The assay is classed as in vivo. Particulars: for running distance / running distance increase versus control / running time / running time increase versus control: maternal 10 mg/kg, gestation and lactation; for Increase Rate (Administration Group/Control Group), Distance / Increase Rate (Administration Group/Control Group), Time: 10 mg/kg/day; for muscle colour after skin removal versus control: fetal reprogramming, 10 mg/kg/day oral. How it is done: Before the experiment, mice were exercised for 5 minutes at a speed of 7 meters/min for two days so as to be adapted to exercising equipment. On day 3, the main experiment was conducted. As for the method for experiment, the mice were made to run at a speed of 10 meter/min for 60 minutes, and after that, the speed was increased at 1 meter/min once every 15 minutes until the maximum speed reaches 15 meters/min. As for the male mice, the running time was increased by 2.9 fold ([…], P<0.0001, n=6) and the running distance was increased by 3.0 fold (9927±1168 versus 3303±394 m, P<0.0001) in the PPAR δ agonist (CMDD1111)-administered mouse group than the control mouse group.
The Experiment using pregnant C57BL/6 mice was conducted in order to verify an endurance enhancement effect by fetal reprogramming of CMDD1226. […]
The experiment for verifying the fetal reprogramming effect of GW501516 and determining the optimum administration period thereof was conducted. The experiment method was shown in FIG. 1, and the experiment was conducted with respect to three kinds of administration periods (gestation period, lactation period, and both of gestation and lactation periods). As the experiment result, the group administered with PPAR δ agonist only during the gestation period had 2.6-fold and 3.2-fold increases in the running time and the running distance, respectively, and the group administered with PPAR δ agonist only during the lactation period had 2.4-fold and 3.0-fold increases in the running time and the running distance, respectively, as compared with the control group. The group administered with PPAR δ agonist during both the gestation and lactation periods had the most obvious increase in endurance, and had 5.1-fold and 6.6-fold increases as compared with the control group (FIG. 22).
The animal test was conducted in order to verify the muscle endurance enhancement and muscular function improvement effects of the material according to the present invention. […] […] The test using a treadmill was conducted in order to confirm the effect of this muscular fiber change on muscle endurance enhancement and muscular function improvement.

The test system is the same in assay [2]. Nature of the assay: Morris water maze test of fetal-reprogrammed mice. The class given is in vivo. The settings on record: for Morris water maze test: average time required to find the platform: 8-week old, maternal 10 mg/kg/day gestation and lactation; for Morris water maze test time: mother 10 mg/kg/day oral during the fetal reprogramming period. The protocol:
An animal experiment was conducted in order to verify a memory improvement effect of the mice subjected to fetal reprogramming by PPAR δ agonist. Pregnant mice were orally administered with PPAR δ agonist, CMDD1111, at a concentration of 10 mg/kg/day during the gestation and lactation periods in order to verify effects of the invented material at the brain formation stage. When the fetus became an 8-week old adult, the Morris water maze test was conducted to compare memory between the control group and the administration group. This test can check special learning and memory, and is a task that is mainly dependent on the hippocampus in the brain. As the experiment result, the average times required to find the flatform were 26 seconds and 22 seconds (male and female, respectively) for the control group and were 9 seconds and […] (male and female, respectively) for the administration group. Therefore, it was verified that the PPAR δ agonist improved memory during the fetal programming period, and this effect was maintained until the adulthood.
The animal test was conducted in order to verify the memory improvement effect of the material according to the present invention. Compounds 5 and 9, which are the developed materials, were orally administered to the mother at a concentration of 10 mg/kg/day during the fetal reprogramming period. The Morris water maze test was used to confirm the difference in brain function between the control group and the administered group.

Another assay has as its target T1, hPPARa (Homo sapiens, UniProt Q07869).
T1 construct: expressed in transfected cells; host or cells: CV-1 cells
T1 sequence (Q07869 1-468): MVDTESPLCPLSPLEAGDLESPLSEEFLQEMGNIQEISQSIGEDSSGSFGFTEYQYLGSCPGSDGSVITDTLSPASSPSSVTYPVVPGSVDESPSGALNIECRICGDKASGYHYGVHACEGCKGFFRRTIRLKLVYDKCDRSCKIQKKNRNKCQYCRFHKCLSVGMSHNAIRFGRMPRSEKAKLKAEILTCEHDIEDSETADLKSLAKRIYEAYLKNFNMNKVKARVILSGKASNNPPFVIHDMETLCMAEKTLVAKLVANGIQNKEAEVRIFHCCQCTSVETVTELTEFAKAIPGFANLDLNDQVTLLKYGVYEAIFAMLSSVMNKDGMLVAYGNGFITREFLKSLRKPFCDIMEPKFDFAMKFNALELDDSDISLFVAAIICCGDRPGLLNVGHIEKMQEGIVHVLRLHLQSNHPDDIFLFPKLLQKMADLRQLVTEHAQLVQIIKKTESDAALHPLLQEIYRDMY
Nature of the assay: Transfection assay in CV-1 cells, hPPARa. The settings on record: luciferase reporter. The class given is cell-based. The protocol: This assay was conducted by using CV-1 cells. The cells were cultured on a 96-well plate with a DMEM medium containing 10% FBS, DBS (delipidated), and 1% penicillin/streptomycin in 37° C. of an incubator 5% of carbon dioxide. Test was conducted in four stages of cell inoculation, transfection, treatment with the developed material, and result confirmation. The CV-1 cells were inoculated on the 96-well plate at a cell density at 5,000 cells/well, and after 24 hours, transfection was performed. PPARs plasmid DNA, reporter DNA, and β-galactosidase DNA were mixed with a transfection reagent, and then used to treat the cells. The developed material was dissolved in dimethylsulfoxide (DMSO), and then was used to treat the cells by using media at various concentrations. After 24 hours of culturing in an incubator, the cells were lysed with a lysis buffer and luciferase activity and β-galactosidase activity were measured using a luminometer and a microplate reader. The measured luciferase value was calibrated with the β-galactosidase value, and this value was depicted on a graph and EC50 was determined.
On the technique in general: Reporter assays use an easily measured gene product as a stand-in for the process of interest.

Assay [3] has as its system C57BL/6 mice with obesity induced by 35% fat feedstuff. Nature of the assay: Obesity suppression effect in high-fat diet mice. The class given is in vivo. Particulars: 10 mg/kg/day oral, 60-day high-fat diet (35% fat). The protocol: Test using mice was conducted in order to confirm the in vivo effect of the material according to the present invention. 8-week old C57BL/6 mice were used, and feedstuff containing 35% fat was used to induce obesity. A. vehicle and Compounds 5 and […] were orally administered. over 60-day period of high-fat diet.

Another assay has as its system ApoE−/− mice. Kind of assay: Arteriosclerosis prevention and treatment, en face analysis of arteries. Particulars: 14 weeks feedstuff, dosed over the last 4 weeks. The class given is in vivo. The protocol:
The in vivo test using ApoE−/− mice was conducted in order to verify the arteriosclerosis prevention and treatment effect of Compounds 5 and 9, the developed materials of the present invention. ApoE−/− mice, as an arteriosclerosis disease model, were fed with […] feedstuff (21% high fat and 1.25% high cholesterol feedstuff) over 14 weeks, to thereby induce arteriosclerosis, and then Compounds 5 and 9 were administered to the mice over the last 4 weeks. The medicine treatment manner was adopted. Arteries of the mice were resected, and then analyzed by the en face method. As the result, it was confirmed that Compounds 5 and 9 had 23% and 18% decreases in occurrence of arteriosclerosis, respectively.

As for `Cc1cc(SC(Cc2ccccc2)c2sc(-c3ccc(C(F)(F)F)cc3)nc2C)ccc1OCC(=O)O` (centres unmarked) [CMDD1111], in assay [1] (female mice), the running distance is 11194±261 m, the “running distance increase versus control” value is given as 2.1 fold, the running time is 761 ± 17 min and the “running time increase versus control” value worked out at 2.0 fold. Also, in assay [1] (male mice), the running distance was 9927±1168 m, the “running distance increase versus control” value worked out at 3.0 fold, the running time was 677 ± 78 min and the “running time increase versus control” value was determined as 2.9 fold. Also, the “Morris water maze test: average time required to find the platform” value in assay [2] (female) is 6 s. Also, in assay [2] (male), the “Morris water maze test: average time required to find the platform” value is 9 s.

For the molecule `Cc1cc(SC(Cc2ccc(-c3ccc(F)cc3)cc2)c2sc(-c3ccc(C(F)(F)F)cc3)nc2C)ccc1OCC(=O)O` (centres unmarked) [Compound 9], the “Increase Rate (Administration Group/Control Group), Distance” value in assay [1] (Gestation + Lactation Periods) is given as 3.0 fold; in assay [1] (Gestation Period), 1.9 fold; in assay [1] (Lactation Period), 1.5 fold. Further, the “Increase Rate (Administration Group/Control Group), Time” value is listed as 2.8 fold in assay [1] (Gestation + Lactation Periods), 1.9 fold in assay [1] (Gestation Period) and 1.5 fold in assay [1] (Lactation Period). Further, the “muscle colour after skin removal versus control” value in assay [1] was “redder than the control group”. The “Morris water maze test time” value in assay [2] stood at 9.7 s. For the same molecule, the “EC50 hPPARa” value at hPPARa is given as “ia”. The “obesity suppression effect versus vehicle control” value in assay [3] is listed as 33%. Moreover, in the assay on ApoE−/− mice, the “decrease in occurrence of arteriosclerosis” value came to 18%.

Turning to `Cc1cc(SC(Cc2ccc(-c3ccccc3)cc2)c2sc(-c3ccc(C(F)(F)F)cc3)nc2C)ccc1OCC(=O)O` (centres unmarked) [Compound 5], the results for the “Increase Rate (Administration Group/Control Group), Distance” value in assay [1] (Gestation + Lactation Periods), in assay [1] (Gestation Period) and in assay [1] (Lactation Period) were 3.9 fold, 2.5 fold and 2.2 fold, respectively. For the same molecule, the “Increase Rate (Administration Group/Control Group), Time” value in assay [1] (Gestation + Lactation Periods) stood at 3.6 fold; in assay [1] (Gestation Period), 2.4 fold; in assay [1] (Lactation Period), 2.1 fold. Moreover, in assay [1], the “muscle colour after skin removal versus control” value is on record as “redder than the control group”. Besides, in assay [2], the “Morris water maze test time” value was 8.2 s. The “EC50 hPPARa” value at hPPARa is given as “ia”. In assay [3], the “obesity suppression effect versus vehicle control” value was 35%. For the same molecule, the “decrease in occurrence of arteriosclerosis” value in the assay with ApoE−/− mice is recorded as 23%.
